According to patent US20190291112A1, “DROPLET MICROFLUIDICS FOR DRUG SCREENING” (University of Macau, priority 2018, published 2019):
Like-named read-outs stand apart in the source and are kept apart here. Each block holds one molecule with its values, some of them ahead of it.

Key:
[1] = test system: NAS1608 human primary nasopharyngeal tumor sample; experiment: cells; assay type: cell-based; conditions: for viability at 1 µM / viability at 10 µM / cytotoxicity at 10 µM: Homo sapiens; for viability at 1 µM / viability at 10 µM: read-out: mean cell viability; for droplet cell viability range: 17 h post-treatment; for range of droplet cell viability: before treatment (0 h); for mean cell death: normalized to DMSO control, calibrated by 0 h data
Jurkat cells [2] = experiment: 384-well microtiter plate drug screening assay (Alamar Blue); assay type: cell-based, human; conditions: 384-well plate, 16-24 h
Method: (§1) Jurkat E6.1 cells (ATCC® TIB-152™) and MDA-MB-231 cells (ATCC® HTB-26™) were used as models for suspended and adherent cancer cell lines respectively. Jurkat cell line was derived from human acute T cell leukemia, whereas MDA-MB-231 cell line was derived from human metastatic breast adenocarcinoma.
(§2) Microtiter plate drug screening assays were carried out on 96-well clear round flat-bottom plates (Corning, USA) or 384-well white square flat-bottom plates (Corning, USA).
(§3) First, 5.0×10^5 or 1.0×10^5 cells were seeded per well for 96-well and 384-well plates respectively. Drugs were diluted with Dulbecco's phosphate-buffered saline (DPBS) (Life Technologies, USA), and subsequently added to achieve final drug concentrations as indicated on the graphs. Afterwards, the plates were transferred to humidified incubator at 37° C. supplemented with 5% CO2 for 16-24 h incubation. Finally, Alamar Blue assay was used to measure cell viability. Fluorescence intensity (Ex. 560 nm, Em. 590 nm) using auto-cutoff was measured from bottom on plate reader (Molecular Devices SpectraMax MS Plate Reader, USA). Cells treated with 0.1% dimethyl sulfoxide (DMSO) were used as negative control, while no cells were added to blank control. All experiments were performed in triplicate for 96-well plates and in quadruplicates for 384-well relates.
(§4) For microliter plate assays, average relative fluorescence signal measured by plate reader from 6 reads of each well was used as raw data point. Cell viability was calculated as follows: […]
(§5) where Sample represented raw data points of each sample well, whereas DMSO control and Blank represented average raw data points of all DMSO control and Blank wells, respectively.

MDA-MB-231 cells = experiment: as above; assay type: cell-based, human; conditions: 384-well plate
Method: as §1, §2, §3, §4, §5

[3] = test system: derived cell line NAS1604C; experiment: On chip drug screening of derived cell line; assay type: cell-based, human
Method: On chip drug screening was performed using the PDMS-based microfluidic chip as described above. A 500 μL glass syringe (Hamilton, USA) and polytetrafluoroethylene (PTFE) tubings with appropriate bore (Cole Parmer, USA) was used to connect between the syringe pump (Harvard Apparatus PHD Ultra Syringe Pump, USA) and the microfluidic chip. Fluorinert® FC-40 (Sigma-Aldrich, USA) supplemented with 2% 008-Fluorosurfactant (Ran Biotechnologies, USA) was used as oil phase; relevant cell culture medium, supplemented with 1% (w/v) methyl cellulose (Sigma-Aldrich, USA) was used as aqueous phase. Cells treated with 0.1% dimethyl sulfoxide (DMSO) were used as negative control.
Briefly, cells at final concentrations of 1-2×10^6 cells per mL were aliquoted in 0.2 mL PCR tubes, then mixed with corresponding drugs and 2 μM ethidium homodimer 1 (Life Technologies, USA) by manual pipetting. Next, […], cell-drug mixtures were loaded into the tubing, consecutively segregated by oil phase at withdrawal rate of 200 μL/h by syringe pump. After loading all mixtures, the tubing was inserted into the microfluidic chip, which was back-flushed with oil phase at 500 μL/h by syringe pump. After that, the mixtures were infused at 25 μL/h by syringe pump. Finally, the inlet and outlet tubings were cut and sealed with Vaseline (Vaseline, USA). The chips were placed in 150 mm cell culture dish (Coming, USA) containing wet paper towels, and transferred to humidified incubator at 37° C. supplemented with 5% CO2 for 16-24 h incubation. Brightfield and red fluorescence images (Ex. 531/40 nm, Em. 593/40 nm) were taken under 10× magnification (Life Technologies EVOS FL Imaging System, USA).
For on chip assays, the number of cells was counted in brightfield and red fluorescence images from each well respectively. Cell viability was calculated as follows: […]
where Total cells and Dead cells referred to the total number of cells counted from brightfield and red fluorescence images, respectively.
Drug susceptibility between the primary tumor cell NAS1604 and its derived cell line NAS1604C was compared (FIG. 9). […] Here, the concept of droplet cell viability was introduced to indicate the total number of live cells among all cells in each individual droplet; in turn, the range of droplet cell viability referred to the range of cell viability of all droplets under specified treatment condition. […] On the other hand, mean cell viability of all treatment conditions were higher in the derived cell line NAS1604C than corresponding conditions in the primary tumor cell NAS1604, reminiscent of increased cell viability that was required for tumor amplification.

Jurkat cells [4] = experiment: On chip drug screening assay (ethidium homodimer 1 staining); assay type: cell-based, human; conditions: 16-24 h
Method: Jurkat E6.1 cells (ATCC® TIB-152™) and MDA-MB-231 cells (ATCC® HTB-26™) were used as models for suspended and adherent cancer cell lines respectively. Jurkat cell line was derived from human acute T cell leukemia, whereas MDA-MB-231 cell line was derived from human metastatic breast adenocarcinoma. On chip drug screening was performed using the PDMS-based microfluidic chip as described above. A 500 μL glass syringe (Hamilton, USA) and polytetrafluoroethylene (PTFE) tubings with appropriate bore (Cole Parmer, USA) was used to connect between the syringe pump (Harvard Apparatus PHD Ultra Syringe Pump, USA) and the microfluidic chip. Fluorinert® FC-40 (Sigma-Aldrich, USA) supplemented with 2% 008-Fluorosurfactant (Ran Biotechnologies, USA) was used as oil phase; relevant cell culture medium, supplemented with 1% (w/v) methyl cellulose (Sigma-Aldrich, USA) was used as aqueous phase. Cells treated with 0.1% dimethyl sulfoxide (DMSO) were used as negative control. […] Next, […], cell-drug mixtures were loaded into the tubing, consecutively segregated by oil phase at withdrawal rate of 200 μL/h by syringe pump. After loading all mixtures, the tubing was inserted into the microfluidic chip, which was back-flushed with oil phase at 500 μL/h by syringe pump. After that, the mixtures were infused at 25 μL/h by syringe pump. Finally, the inlet and outlet tubings were cut and sealed with Vaseline (Vaseline, USA). […] Brightfield and red fluorescence images (Ex. 531/40 nm, Em. 593/40 nm) were taken under 10× magnification (Life Technologies EVOS FL Imaging System, USA). […] For on chip assays, the number of cells was counted in brightfield and red fluorescence images from each well respectively.

IC50 (Jurkat cells [2]; Homo sapiens): 0.039 µM
IC50 (Jurkat cells [4]; Homo sapiens): 22.1 µM
Compound: CC(C)C[C@H](NC(=O)[C@H](Cc1ccccc1)NC(=O)c1cnccn1)B(O)O [bortezomib]
viability at 1 µM ([1]; 0 h): 72.9%
viability at 10 µM ([1]; 0 h): 78.8%
cytotoxicity at 10 µM ([1]; 17 h, read-out: droplet cell viability reduction in the majority of droplets): 35 to 55%
cytotoxicity at 10 µM ([1]; 17 h, read-out: maximum reduction of droplet cell viability): 62.9%
viability at 1 µM ([1]; 17 h): 42.5%
viability at 10 µM ([1]; 17 h): 34.6%
cytotoxicity at 10 µM ([1]; 17 h, read-out: minimum reduction of droplet cell viability): 29.3%
share of total sample cell population in droplets with viability reduction of over 30% ([1]; NAS1608, 10 μM bortezomib, 17 h): 92.4%
droplet cell viability range ([1]; NAS1608, 10 μM bortezomib): 49.7%
range of droplet cell viability ([1]; NAS1608, 10 μM bortezomib): 29.0%
mean cell death ([1]; NAS1608, 10 μM, 17 h): 51.7%
dose dependence of normalized cell viability ([1]; NAS1608, 16-24 h, normalized to mock treatment): dose-dependent reduction of cell viability
viability at 10 µM (MDA-MB-231 cells; Homo sapiens, 10.0 μM dose, read-out: cell viability): 50%
droplet cell viability range ([3]; 1 μM bortezomib): 37.5%
droplet cell viability range after removal of one droplet outlier ([3]; 1 μM bortezomib): 16.1%
cell viability compared with mock treatment ([3]; 1 μM, versus DMSO): highest cell viability

Compound: N.N.[Cl][Pt][Cl] [cisplatin]
droplet cell viability range ([1]; NAS1608, 100 μM cisplatin): 56.5%
range of droplet cell viability ([1]; NAS1608, 100 μM cisplatin): 31.1%
mean cell death ([1]; NAS1608, 100 μM, 17 h): 21.0%
IC50 (Jurkat cells [2]): 39 µM
IC50 (MDA-MB-231 cells): > 50 µM
droplet cell viability range ([3]; 11 μM cisplatin): 36.5%
droplet cell viability range ([3]; 33 μM cisplatin): 71.6%
droplet cell viability range after removal of one droplet outlier ([3]; 33 μM cisplatin): 40.8%
dose dependence of response ([3]; 11 and 33 μM): dose-dependent response
IC50 (Jurkat cells [4]): 39 µM
